How the values were obtained:
[1] = tested on: huCART19 cells co-cultured with NALM6 (Nalm-6); test: CART proliferation in 4 day co-culture assay with RAD001; type: cell-based, human; details: for proliferation of huCART19 cells: 4 day co-culture
Experimental: To evaluate the functionality of CARTs, the T cells are thawed and counted, and viability is assessed by Cellometer. The number of CAR-positive cells in each culture is normalized using non-transduced T cells (UTD). The impact of RAD001 on CARTs was tested in titrations with RAD001, starting at 50 nM. The target cell line used in all co-culture experiments is NALM6 (Nalm-6), a human pre-B cell acute lymphoblastic leukemia (ALL) cell line expressing CD19 and transduced to express luciferase.
For measuring the proliferation of CARTs, T cells are cultured with target cells at a ratio of 1:1. The assay is run for 4 days, when cells are stained for CD3, CD4, CD8 and CAR expression. The number of T cells is assessed by flow cytometry using counting beads as reference.

NALM6-luc tumors = test: NALM6-luc tumor growth with daily RAD001 dosing; type: in vivo, NSG mice; details: daily oral dosing of RAD001 alone, 0.3, 1, 3 and 10 mg/kg
Experimental: NALM6-luc cells: The NALM6 human acute lymphoblastic leukemia (ALL) cell line was developed from the peripheral blood of a patient with relapsed ALL. The cells were then tagged with firefly luciferase. These suspension cells grow in RPMI supplemented with 10% heat inactivated fetal bovine serum.
Mice: 6 week old NSG (NOD.Cg-PrkdcscidIl2rgtmlWj1/SzJ) mice were received from the Jackson Laboratory (stock number 005557).
(§1) Tumor implantation: NALM6-luc cells were grown and expanded in vitro in RPMI supplemented with 10% heat inactivated fetal bovine serum. The cells were then transferred to a 15 ml conical tube and washed twice with cold sterile PBS. NALM6-luc cells were then counted and resuspended at a concentration of 10×10^6 cells per milliliter of PBS. The cells were placed on ice and immediately (within one hour) implanted in the mice. NALM6-luc cells were injected intravenously via the tail vein in a 100 μl volume, for a total of 1×10^6 cells per mouse.
(§2) RAD001 dosing: A concentrated micro-emulsion of 50 mg equal to 1 mg RAD001 was formulated and then resuspended in D5W (dextrose 5% in water) at the time of dosing. Mice were orally dosed daily (via oral gavage) with 200 μl of the desired doses of RAD001.

[2] = pharmacokinetic analysis of RAD001 in blood; type: in vivo, NSG mice
Experimental: as §2
PK analysis: Mice were dosed daily with RAD001 starting 7 days post tumor implantation. Dosing groups were as follows: 0.3 mg/kg, 1 mg/kg, 3 mg/kg, and 10 mg/kg. Mice were bled on days 0 and 14 following the first and last dose of RAD001, at the following time points for PK analysis: 15 minutes, 30 minutes, 1 hour, 2 hours, 4 hours, 8 hours, 12 hours, and 24 hours.

huCAR19 CAR T cells = test: in vivo proliferation of humanized CD19 CART cells with RAD001 dosing; parameters: species or system NSG mice
Experimental: as §1
CAR T cell dosing: Mice were administered 5×10^6 CAR T cells 7 days after tumor implantation. Cells were partially thawed in a 37 degree Celsius water bath and then completely thawed by the addition of 1 ml of cold sterile PBS to the tube containing the cells. The thawed cells were transferred to a 15 ml falcon tube and adjusted to a final volume of 10 mls with PBS. The cells were washed twice at 1000 rpm for 10 minutes each time and then counted on a hemocytometer. T cells were then resuspended at a concentration of 50×10^6 CAR T cells per ml of cold PBS and kept on ice until the mice were dosed. The mice were injected intravenously via the tail vein with 100 μl of the CAR T cells for a dose of 5×10^6 CAR T cells per mouse. Eight mice per group were treated either with 100 μl of PBS alone (PBS), or humanized CD19 CAR T cells.
as §2
Based on these doses, huCAR19 CAR T cells were dosed with and without RAD001 to determine the proliferative ability of these cells. The highest dose used was 3 mg/kg based on the levels of RAD001 in the blood 24 hours after dosing. As the concentration of RAD001 was above 10 nM 24 hours after the final dose of RAD001, several lower doses of RAD001 were used in the in vivo study with CAR T cells. The CAR T cells were dosed IV one day prior to the start of the daily oral RAD001 dosing. Mice were monitored via FACS for T cell expansion.

- concentration at 24 h ([2]; NSG, mouse, blood, lowest dose tested (0.3 mg/kg), oral, read-out: RAD001 concentration in the blood 24 hours after dosing): > 10 nM
- concentration of RAD001 24 hours after the final dose ([2]; after the final dose of RAD001): above 10 nM
- stability in the blood of tumor bearing mice ([2]; daily oral dosing): fairly stable
- RAD001 concentration in the blood 24 hours after dosing ([2]; day 14, lowest dose tested (0.3 mg/kg), oral): above 10 nm
Structure (SMILES): CO[C@H]1C[C@@H]2CC[C@@H](C)[C@@](O)(O2)C(=O)C(=O)N2CCCC[C@H]2C(=O)O[C@H]([C@H](C)C[C@@H]2CC[C@@H](OCCO)[C@H](OC)C2)CC(=O)[C@H](C)/C=C(\C)[C@@H](O)[C@@H](OC)C(=O)[C@H](C)C[C@H](C)/C=C/C=C/C=C/1C [RAD001, (1R,9S,12S,15R,16E,18R,19R,21R,23S,24E,26E,28E,30S,32S,35R)-1,18-dihydroxy-12-{(1R)-2-[(1S ,3R,4R)-4-(2-hydroxyethoxy)-3-methoxycyclohexyl]-1-methylethyl}-19,30-dimethoxy-15,17,21,23,29,35-hexamethyl-11,36-dioxa-4-aza-tricyclo[30.3.1.04,9]hexatriaconta-16,24,26,28-tetraene-2,3,10,14,20-pentaone]
- proliferation of huCART19 cells ([1]; 0.0032 nM RAD001): higher than observed without the addition of RAD001
- proliferation of huCART19 cells ([1]; 0.016 nM RAD001): higher than observed without the addition of RAD001
- proliferation of CAR-expressing, transduced T cells ([1]; low doses of RAD001, 4 days of co-culture): enhanced
- growth of NALM6-luc tumors (NALM6-luc tumors): did not have an impact
- CAR T cell proliferation in vivo (huCAR19 CAR T cells; RAD001 0.003 mg/kg daily, above the normal level of huCAR19 proliferation): enhancement
- proliferation of CD8+ CAR T cells in vivo (huCAR19 CAR T cells; lowest doses of RAD001): enhanced proliferation can be seen at early time points
- proliferation of the CAR T cells in vivo (huCAR19 CAR T cells; lowest doses of RAD001, daily oral, huCAR19 dosed IV): enhanced proliferation
- proliferation of CD4+ CAR T cells in vivo (huCAR19 CAR T cells; lowest doses of RAD001, compared with CD8+ CAR T cells): more evident and prolonged
